Nine molecules from ChEMBL document CHEMBL4190355, “Allosteric Modulators of the M4 Muscarinic Acetylcholine Receptor” (ACS Med Chem Lett, 2017) can be followed below.

The structures appear in SMILES notation.

In this assay the target is T1, Muscarinic acetylcholine receptor M4 (Homo sapiens) (UniProt P08173).
T1 sequence (whole entry): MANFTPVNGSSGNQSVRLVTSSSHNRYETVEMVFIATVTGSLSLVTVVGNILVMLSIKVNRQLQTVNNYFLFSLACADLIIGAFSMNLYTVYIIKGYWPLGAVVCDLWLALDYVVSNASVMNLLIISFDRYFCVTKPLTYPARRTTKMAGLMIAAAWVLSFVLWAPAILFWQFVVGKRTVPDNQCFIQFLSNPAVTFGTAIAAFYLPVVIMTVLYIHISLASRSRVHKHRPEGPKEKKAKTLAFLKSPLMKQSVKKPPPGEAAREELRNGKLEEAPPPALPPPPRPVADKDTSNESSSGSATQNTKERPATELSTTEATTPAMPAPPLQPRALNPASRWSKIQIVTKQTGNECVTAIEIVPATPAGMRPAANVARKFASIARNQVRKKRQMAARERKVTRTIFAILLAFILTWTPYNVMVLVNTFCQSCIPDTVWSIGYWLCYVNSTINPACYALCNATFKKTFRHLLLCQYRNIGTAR
Put plainly: Positive allosteric modulation of human muscarinic acetylcholine receptor M4 expressed in CHOK1 cells assessed as increase in acetylcholine-induced […] preincubated for 4 mins followed by acetylcholine addition measured for 3.5 mins by FLIPR assay. Type of assay: functional, cell-based.
Take `Cc1cc2c(nc1N1CCC(Oc3cnc4[nH]nc(C)c4c3)CC1)CNC2=O`: the IP was 6.07 µM.

Regarding `Cc1cc2c(nc1N1CCC(OC3CCOC3)CC1)CNC2=O` (centres undefined), the IP turned out to be 11.3 µM.

`COc1ccc(O[C@H]2CCN(c3nc4c(cc3C)C(=O)NC4)C[C@H]2C)cn1`: the IP turned out to be 30 µM.

Consider `COc1ccc(O[C@@H]2CCN(c3nc4c(cc3C)C(=O)N(C)[C@H]4CO)C[C@H]2F)cn1`, for which the IP came to 8.06 µM.

With `CCOc1ccc(OC2CCN(c3nc4c(cc3C)C(=O)N(C)[C@H]4CO)CC2)cn1`, the IP is 8.62 µM.

`CCN1C(=O)c2c(nc(N3CCC(Oc4ccc5c(c4)COC5)CC3)c(C)c2C)[C@@H]1CO`: the IP stood at 240 µM.

As to `COCCOC1CCN(c2nc3c(cc2C)C(=O)NC3)CC1`, the IP is 11.2 µM.

For the molecule `Cc1cc2c(nc1N1CCC(OC[C@@]3(C)C[C@H]3C#N)CC1)CNC2=O`, the IP was found to be 30 µM.

In the case of `Cc1cc2c(nc1N1CCC(Oc3ccc4c(n3)COC4)CC1)[C@H](CO)N(C)C2=O`, the IP came out at 30 µM.
